Values quoted from earlier work in patent US8758737B2, “Evaporative cooling composition” (priority 2005, dated 2014).

Settings: stated as a property of the alcohol (evaporative cooling); temperature not given

| vapor pressure | SMILES |
| --- | --- |
| about 41.0 mmHg | CCO [ethyl alcohol] |
| 310 mmHg | CC(C)O [isopropyl alcohol] |
